In patent publication US20180088120A1, “Elevated PSMA Identifies Lethal Prostate Cancers” (Cornell University, priority 2012, published 2018):

Test system: prostate cancer lesions
Assay: FDG PET imaging of prostate cancer patients (comparison)
Format: in vivo, human
From the text: These panels show CT scans (left column) and PET scans (right column). […] However, this is not observed in the Fludeoxyglucose (^18F) PET (lower right panel).
FIGS. 7-9 show CT and PET/CT scan taken from the same patient as from FIG. 6.

For `OC[C@H]1OC(O)[C@H]([18F])[C@@H](O)[C@@H]1O` (some centres unmarked) [Fludeoxyglucose (^18F)], the “PET uptake in bone metastasis, left iliac bone” value (patient with metastatic prostate cancer, FIG. 5) was “not observed” and the “Uptake in skeletal lesions not clearly seen on bone scan” value (patient with prostate carcinoma, FIG. 6) was “non-FDG avid”.
